Reference: publication PMC6862250, “Lipophilicity Determination of Quaternary (Fluoro)Quinolones by Chromatographic and Theoretical Approaches” (International Journal of Molecular Sciences, 2019)

Tests used:
Type in all cases: physicochemical
[1] = RP-TLC lipophilicity, silica gel C8, methanol-water; settings: for C 0: RP-TLC silica gel C8, C0 = −RM^0/b; for PC1: RP-TLC silica gel C8, first principal component of RM values, contains 83.57% of information; for mRM: RP-TLC silica gel C8, mean value of RM; for R M ^0: RP-TLC silica gel C8, methanol-water 30 to 70% (v/v), intercept of Soczewiński–Wachtmeister equation; for b: RP-TLC silica gel C8, slope of Soczewiński–Wachtmeister equation
Protocol: (§1) The ready-to-use TLC glass plates covered by octadecyl(C18)- and octyl(C8)-modified TLC silica layers were purchased from Merck (Darmstadt, Germany). Stock solutions (5 µL) of the analytes were spotted manually on the plates with the use of a micropipette from Brand (Wertheim, Germany). The mobile phases were prepared by mixing appropriate volumes of pure organic solvents and water (in step gradient by 10% (v/v)), in the following proportions: (a) methanol–water ranging from 30 to 70% (v/v), in the case of C8-bonded silica gel stationary phase; and (b) methanol–water ranging from 40 to 70% (v/v), in the case of C18-bonded silica gel stationary phase.
(§2) Before analysis, the chromatographic chamber (Twin Trough Chambers from CAMAG Philadelphia, USA) was saturated for 20 min. All TLC experiments were performed at room temperature (22 ± 2 °C). Chromatograms were developed using the ascending technique to a distance of 8 cm. The investigated substances were visualized under UV light at λ = 366 nm by CAMAG UV Lamp 4 and the Viewing Box 4 (Philadelphia, USA). […] The obtained retardation factors (RF) were collected in the Supplementary data sheets. The retention parameter, RM, was calculated for each compound according to the Bate-Smith and Westall formula: (7) RM=log(1/RF−1) and listed in Table S2. Next, the Soczewiński–Wachtmeister’s equation: RM = RM^0 + bC(8) was used in order to determine the basic lipophilic RP-TLC parameter RM^0 as well as commonly used hydrophobic constants m. Soczewiński–Wachtmeister’s equation presented a linear relationship between concentration of the organic solvent in mobile phase (C) and RM value. Moreover, mean value of RM was used for lipophilicity assessments.
(§3) Furthermore, C0 RP-TLC lipophilicity parameter, introduced by Bieganowska, has been calculated according to the formula:(9) C0=−RM^0/b.
(§4) The C0 parameter corresponds to the parameter φ0, previously proposed for the HPLC. This parameter relates to the concentration of the organic component in the mobile phase for which the distribution of the analyzed substance between the mobile and stationary phase is equal (1:1).
(§5) Also, the principal component analysis (PCA) was applied in order to extract information regarding the lipophilicity of solutes and formulate them as the first principal component (PC1). Calculation data matrixes included RM values of solutes for each modifier concentration in the mobile phase.

[2] = RP-TLC lipophilicity, silica gel C18, methanol-water; settings: for C 0: RP-TLC silica gel C18, C0 = −RM^0/b; for PC1: RP-TLC silica gel C18, first principal component of RM values, contains 86.92% of information; for mRM: RP-TLC silica gel C18, mean value of RM; for R M ^0: RP-TLC silica gel C18, methanol-water 40 to 70% (v/v), intercept of Soczewiński–Wachtmeister equation; for b: RP-TLC silica gel C18, slope of Soczewiński–Wachtmeister equation
Protocol: as §1, §2, §3, §4, §5

[3] = MEKC lipophilicity (SDS micelles, pH 7.4); settings: 50 mM SDS, HEPES/TRIS buffer pH 7.4, 25 °C
Protocol: All MEKC experiments were carried out with a P/ACE MDQ plus system (Sciex, Framingham, MA, USA) equipped with photodiode array detector (PDA) and controlled by 32 Karat software (version 10.2). The uncoated fused silica capillaries (50 µm i.d., Polymicro Technologies, West Yorkshire, UK) of 60 cm total length and 50.2 cm effective length were used. Prior to analysis, the capillary was rinsed with 0.1 M NaOH for 30 min, ultrapure water for 10 min, and background electrolyte (BGE) for 30 min. After each analysis, the capillary was conditioned with BGE for 2 min. The applied pressure for all rinsing operations was 345 kPa. The analytes were dissolved in BGE at concentration of 100 µg/mL with addition of quinine (micelles marker). As electroosmotic flow (EOF) marker, DMSO was used. The samples were hydrodynamically injected at 35 kPa for 5 s. The separations were performed by applying voltage of 20 kV with positive polarity and constant temperatures at 25 ± 0.1 °C. The BGE consisted of aqueous solution of 50 mM SDS and 120 mM HEPES /100 mM TRIS buffer of pH 7.4. The BGE was prepared each working day by dilution of stock solution. Detection was carried out at 200 and 280 nm with 8 Hz probing frequency. The logarithm of retention factor logk was calculated according to the equation introduced by Terabe and co-workers:(10) logkMEKC=log(tR−tEOF/tEOF(1−tR/tMC)) The established logk parameters are summarized in Table 2.

| Structure (SMILES) | C 0 [1] | PC1 [1] | mRM [1] | R M ^0 [1] | b [1] | C 0 [2] | PC1 [2] | mRM [2] | R M ^0 [2] | b [2] | logk [3] | logk ([3]; listed as pipemidic acid) |
| --- | --- | --- | --- | --- | --- | --- | --- | --- | --- | --- | --- | --- |
| COc1c(N2CC[N+]3(CN4C(C)=CC(C)=C(C(=O)O)C4=N3)C(C)C2)c(F)cc2c(=O)c(C(=O)O)cn(C3CC3)c12.[Cl-] (stereo not shown) [Compound 13] | 0.92 | −0.64 | 0.83 | 1.82 | −1.97 | 0.88 | 1.74 | 0.82 | 2.18 | −2.47 | −0.408 | – |
| CCn1cc(C(=O)O)c(=O)c2cc(F)c(N3CC[N+]4(CC3)CN3C(=N4)C(C(=O)O)=Cc4ccccc43)cc21.[Cl-] [Compound 1] | 1.04 | −2.23 | 1.03 | 1.99 | −1.92 | 1.21 | 0.72 | 0.96 | 1.65 | −1.36 | −0.104 | – |
| CCn1cc(C(=O)O)c(=O)c2cc(F)c(N3CC[N+]4(CC3)CN3C(=N4)C(C(=O)O)=Cc4ccccc43)nc21.[Cl-] [Compound 7] | 1.23 | −2.01 | 1.05 | 1.76 | −1.43 | 1.17 | 0.48 | 0.99 | 1.87 | −1.60 | −0.239 | – |
| CC1=CC(C)=C(C(=O)O)C2=N[N+]3(CN12)C(C)CN(c1c(F)c(N)c2c(=O)c(C(=O)O)cn(C4CC4)c2c1F)CC3C.[Cl-] (stereo not shown) [Compound 14] | 0.86 | −1.79 | 0.96 | 2.29 | −2.66 | 0.86 | 1.32 | 0.88 | 2.45 | −2.84 | −0.261 | – |
| CC1=CC(C)=C(C(=O)O)C2=N[N+]3(CCN(c4cc5c(cc4F)c(=O)c(C(=O)O)cn5C4CC4)CC3)CN12.[Cl-] [Compound 4] | 0.94 | −0.58 | 0.84 | 1.79 | −1.90 | 0.94 | 2.36 | 0.72 | 1.74 | −1.85 | −0.321 | – |
| CCn1cc(C(=O)O)c(=O)c2cc(F)c(N3CC[N+]4(CC3)CN3C(C)=CC(C)=C(C(=O)O)C3=N4)cc21.[Cl-] [Compound 12] | 1.00 | −0.38 | 0.82 | 1.63 | −1.63 | 1.00 | 1.97 | 0.78 | 1.75 | −1.75 | −0.272 | – |
| C[C@@H]1CN(c2c(F)c(N)c3c(=O)c(C(=O)O)cn(C4CC4)c3c2F)C[C@H](C)N1 [Compound 20, reference compound] | 1.07 | −3.81 | 1.21 | 2.27 | −2.13 | 0.99 | −1.40 | 1.28 | 2.85 | −2.88 | 0.116 | – |
| O=C(O)c1cn(C2CC2)c2cc(N3CCNCC3)c(F)cc2c1=O [Compound 22, ciprofloxacin, reference compound] | 1.61 | −5.04 | 1.41 | 2.04 | −1.27 | 1.30 | −3.88 | 1.62 | 2.79 | −2.15 | – | – |
| COc1c(N2CC3CCC[N+]4(CN5C(=N4)C(C(=O)O)=Cc4ccccc45)C3C2)c(F)cc2c(=O)c(C(=O)O)cn(C3CC3)c12.[Cl-] (stereo not shown) [Compound 15] | 0.91 | −3.52 | 1.19 | 2.63 | −2.88 | 0.84 | −1.12 | 1.24 | 3.56 | −4.21 | −0.250 | – |
| CCn1cc(C(=O)O)c(=O)c2cnc(N3CCNCC3)nc21 [Compound 19, pipemidic acid, reference compound] | 1.65 | −3.91 | 1.30 | 1.87 | −1.13 | 1.35 | −1.24 | 1.24 | 2.39 | −1.78 | −0.170 | −0.1697 |
| CCn1cc(C(=O)O)c(=O)c2cnc(N3CC[N+]4(CC3)CN3C(C)=CC(C)=C(C(=O)O)C3=N4)nc21.[Cl-] [Compound 10] | 1.28 | 0.79 | 0.71 | 1.16 | −0.91 | 1.22 | 2.53 | 0.70 | 1.27 | −1.04 | – | – |
| CCn1cc(C(=O)O)c(=O)c2cc(F)c(N3CC[N+]4(CN5C(C)=CC(C)=C(C(=O)O)C5=N4)C(C)C3)c(F)c21.[Cl-] (stereo not shown) [Compound 9] | 0.97 | −0.11 | 0.79 | 1.62 | −1.66 | 0.98 | 1.75 | 0.81 | 1.86 | −1.91 | −0.479 | – |
| CCn1cc(C(=O)O)c(=O)c2cc(F)c(N3CCNC(C)C3)c(F)c21 (stereo not shown) [Compound 17, reference compound] | 1.34 | −4.09 | 1.29 | 2.06 | −1.54 | 1.15 | −1.08 | 1.22 | 2.33 | −2.03 | 0.077 | – |
| COc1c(N2CC[N+]3(CN4C(=N3)C(C(=O)O)=Cc3ccccc34)C(C)C2)c(F)cc2c(=O)c(C(=O)O)cn(C3CC3)c12.[Cl-] (stereo not shown) [Compound 2] | 0.89 | −2.22 | 1.01 | 2.31 | −2.61 | 0.84 | 0.81 | 0.95 | 2.78 | −3.31 | −0.125 | – |
| CCn1cc(C(=O)O)c(=O)c2cnc(N3CC[N+]4(CC3)CN3C(=N4)C(C(=O)O)=Cc4ccccc43)nc21.[Cl-] [Compound 6] | 2.35 | −1.73 | 1.04 | 1.32 | −0.56 | 1.23 | 0.53 | 0.98 | 1.78 | −1.45 | – | – |
